Here are results for two compounds from ChEMBL document CHEMBL1138671, “Structure-based design, synthesis, and evaluation of conformationally constrained mimetics of the second mitochondria-derived activator of caspase that target the X-linked inhibitor of apoptosis protein/caspase-9 interaction site” (J Med Chem, 2004).

The target in the test is E3 ubiquitin-protein ligase XIAP (Homo sapiens, UniProt P98170). Nature of the test: Binding affinity for the recombinant XIAP BIR3 protein in displacing a fluorescently labeled Smac peptide.

Each structure is given as a SMILES string. Bounds are passed on as bounds.

Chain of E3 ubiquitin-protein ligase XIAP (P98170 whole entry): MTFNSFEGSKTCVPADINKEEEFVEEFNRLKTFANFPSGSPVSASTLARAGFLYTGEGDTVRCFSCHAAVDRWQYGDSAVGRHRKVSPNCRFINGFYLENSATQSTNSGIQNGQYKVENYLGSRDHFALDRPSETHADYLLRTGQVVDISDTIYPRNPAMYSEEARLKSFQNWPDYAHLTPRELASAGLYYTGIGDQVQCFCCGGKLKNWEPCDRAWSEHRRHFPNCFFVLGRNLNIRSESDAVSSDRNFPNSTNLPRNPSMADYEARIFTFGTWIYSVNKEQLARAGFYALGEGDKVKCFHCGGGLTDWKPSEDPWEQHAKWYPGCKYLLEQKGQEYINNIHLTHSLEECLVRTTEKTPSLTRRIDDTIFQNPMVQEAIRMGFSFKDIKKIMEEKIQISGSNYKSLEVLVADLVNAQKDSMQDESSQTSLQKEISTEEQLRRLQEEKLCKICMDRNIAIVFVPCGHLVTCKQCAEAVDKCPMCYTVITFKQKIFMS

As for `C[C@H](N)C(=O)NC1CC[C@H]2CC[C@@H](C(=O)Nc3ccccc3)N2C1=O` (some centres not stated), the Ki (as a rule, a dissociation constant, usually derived from enzyme kinetics or from competition with a known ligand) was above 100 µM.
`CCC[C@H](N)C(=O)NC1CC[C@H]2CC[C@@H](C(=O)NCc3ccccc3)N2C1=O` (some centres not stated): the Ki was above 100 µM.
